Assays:
RXRγ [1] = target: T1, RXRγ (Homo sapiens, UniProt P48443); assay: RXR receptor transactivation assay; format: cell-based; details: for Emax: read-out: % Eff RXR γ transactivation; for EC50: read-out: EC50 RXR γ transactivation
T1 construct: expressed in transfected cells
T1 sequence (P48443 1-463): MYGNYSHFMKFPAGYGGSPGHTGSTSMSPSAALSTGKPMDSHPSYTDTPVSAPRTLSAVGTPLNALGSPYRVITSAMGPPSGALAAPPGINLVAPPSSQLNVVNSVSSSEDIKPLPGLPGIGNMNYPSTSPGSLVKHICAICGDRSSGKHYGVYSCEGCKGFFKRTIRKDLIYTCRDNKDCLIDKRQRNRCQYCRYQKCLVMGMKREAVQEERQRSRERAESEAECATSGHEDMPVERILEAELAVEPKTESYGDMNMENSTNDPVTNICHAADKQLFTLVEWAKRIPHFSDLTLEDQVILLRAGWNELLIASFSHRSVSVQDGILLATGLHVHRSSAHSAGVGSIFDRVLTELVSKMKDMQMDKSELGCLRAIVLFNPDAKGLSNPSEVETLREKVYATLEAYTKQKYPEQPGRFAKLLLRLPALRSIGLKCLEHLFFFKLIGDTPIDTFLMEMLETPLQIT
Excerpt: (§1) A holoreceptor transactivation assay and a ligand binding assay which measure the antagonist/agonist like activity of the compounds of the invention, or their ability to bind to the several retinoid receptor subtypes, respectively, are described in published PCT Application No. WO WO93/11755 (particularly on pages 30-33 and 37-41) published on Jun. 24, 1993, the specification of which is also incorporated herein by reference. A detailed experimental procedure for holoreceptor transactivations has been described by Heyman et al. Cell 68, 397-406, (1992); Allegretto et al. J. Biol. Chem. 268, 26625-26633, and Mangelsdorf et al. The Retinoids: Biology, Chemistry and Medicine, pp 319-349, Raven Press Ltd., New York, which are expressly incorporated herein by reference. The results obtained in this assay are expressed in EC50 numbers, as they are also in the chimeric receptor transactivation assay. The results of ligand binding assay are expressed in Kd numbers. (See Cheng et as. Biochemical Pharmacology Vol. 22 pp 3099-3108, expressly incorporated herein by reference.)

RXRβ [2] = target: T2, RXRβ (Homo sapiens, UniProt P28702); assay: RXR receptor transactivation assay; format: cell-based; details: for Emax: read-out: % Eff RXR β transactivation; for EC50: read-out: EC50 RXR β transactivation
T2 construct: expressed in transfected cells
T2 sequence (P28702 1-533): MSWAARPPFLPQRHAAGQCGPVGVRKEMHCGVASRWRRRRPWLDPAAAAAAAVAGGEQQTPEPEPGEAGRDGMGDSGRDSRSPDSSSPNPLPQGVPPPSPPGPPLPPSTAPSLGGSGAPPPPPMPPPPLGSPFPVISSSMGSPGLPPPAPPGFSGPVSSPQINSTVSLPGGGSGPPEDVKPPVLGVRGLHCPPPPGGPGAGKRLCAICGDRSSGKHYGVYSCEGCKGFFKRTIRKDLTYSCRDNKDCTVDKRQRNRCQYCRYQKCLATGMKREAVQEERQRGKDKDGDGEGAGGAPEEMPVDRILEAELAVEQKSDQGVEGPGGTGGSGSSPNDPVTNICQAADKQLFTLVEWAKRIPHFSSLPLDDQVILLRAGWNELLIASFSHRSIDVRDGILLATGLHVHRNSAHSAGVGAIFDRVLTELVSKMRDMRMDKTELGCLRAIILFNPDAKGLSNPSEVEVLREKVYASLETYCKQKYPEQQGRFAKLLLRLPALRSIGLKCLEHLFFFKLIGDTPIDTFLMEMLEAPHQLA
Excerpt: as §1

RXRα [3] = target: T3, RXRα (Homo sapiens, UniProt P19793); assay: RXR receptor transactivation assay; format: cell-based; details: for Emax: read-out: % Eff RXR α transactivation; for EC50: read-out: EC50 RXR α transactivation
T3 construct: expressed in transfected cells
T3 sequence (P19793 1-462): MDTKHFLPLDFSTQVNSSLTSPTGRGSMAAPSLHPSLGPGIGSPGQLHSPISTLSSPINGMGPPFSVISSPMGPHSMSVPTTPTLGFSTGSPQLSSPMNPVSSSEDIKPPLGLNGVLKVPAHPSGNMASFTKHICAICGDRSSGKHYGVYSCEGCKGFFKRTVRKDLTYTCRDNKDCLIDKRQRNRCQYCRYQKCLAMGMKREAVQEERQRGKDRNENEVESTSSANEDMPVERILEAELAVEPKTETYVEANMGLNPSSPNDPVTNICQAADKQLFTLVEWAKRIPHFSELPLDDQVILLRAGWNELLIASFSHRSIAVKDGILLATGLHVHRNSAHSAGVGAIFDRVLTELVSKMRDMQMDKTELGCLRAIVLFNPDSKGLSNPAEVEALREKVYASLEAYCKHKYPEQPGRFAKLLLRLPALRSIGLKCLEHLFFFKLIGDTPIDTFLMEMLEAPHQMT
Excerpt: The specification of U.S. Pat. No. 5,455,265 is hereby expressly incorporated by reference.
as §1

RXRα [4] = target: T3, RXRα; assay: ligand binding assay; details: read-out: Kd RXR α binding
Excerpt: as §1

RXRγ [5] = target: T1, RXRγ; assay: ligand binding assay; details: read-out: Kd RXR γ binding
Excerpt: as §1

RXRβ [6] = target: T2, RXRβ; assay: ligand binding assay; details: read-out: Kd RXR β binding
Excerpt: as §1

Emax (RXRγ [1]) [%]	EC50 (RXRγ [1]) [nM]	Emax (RXRβ [2]) [%]	EC50 (RXRβ [2]) [nM]	Emax (RXRα [3]) [%]	EC50 (RXRα [3]) [nM]	Kd (RXRα [4]) [nM]	Kd (RXRγ [5]) [nM]	Kd (RXRβ [6]) [nM]	Compound
112	2	85	9	87	1	0.6	2.8	1.7	CC(/C=C/[C@@H]1C[C@]1(C)c1cc(C(C)(C)C)cc(C(C)(C)C)c1)=C\C(=O)O [Compound 96, 7-(3,5-di-t-Butylphenyl)-(6S,7S)-6,7-methano-3,7-dimethyl-hepta-2E,4E-dienoic acid]
112	0.1	99	0.1	110	0.1	0.19	1.4	0.6	CCCCC1=CC(C)(C)Oc2cc([C@@]3(C)C[C@H]3/C=C/C(C)=C/C(=O)O)ccc21 [Compound 89]
116	0.1	107	0.3	102	0.1	0.05	0.32	2.9	CC(/C=C/[C@@H]1C[C@]1(C)c1ccc2c(c1)OC(C)(C)C=C2C(C)C)=C\C(=O)O [Compound 87]
105	0.1	107	0.1	106	0.1	0.17	1.4	1.6	CC(/C=C/[C@@H]1C[C@]1(C)c1ccc2c(c1)OC(C)(C)C=C2C(C)(C)C)=C\C(=O)O [Compound 88]

Second part, the molecule before the results:

Compound	Emax (RXRγ [1]) [%]	EC50 (RXRγ [1]) [nM]	Emax (RXRβ [2]) [%]	EC50 (RXRβ [2]) [nM]	Emax (RXRα [3]) [%]	EC50 (RXRα [3]) [nM]	Kd (RXRα [4]) [nM]	Kd (RXRγ [5]) [nM]	Kd (RXRβ [6]) [nM]
CC(/C=C/[C@@H]1C[C@]1(C)c1ccc2c(c1)C(C(C)(C)C)=CCC2(C)C)=C\C(=O)O [Compound 57]	89	0.1	95	0.7	95	0.1	0.01	4.2	0.8
CCC1(c2cc(C(C)C)cc(C(C)C)c2)CC1/C=C/C(C)=C/C(=O)O (single isomer, unassigned; (+)) [Compound 7]	156	–	152	0.06	147	–	0.05	7.3	–
CCCC1(c2ccc3c(c2)C(C(C)C)=CCC3(C)C)CC1/C=C/C(C)=C/C(=O)O (single isomer, unassigned; (+)) [Compound 34]	115	0.1	98	0.9	105	0.05	0.01	1.4	–
CC1=CC(C)(C)Oc2cc(C3(C)CC3/C=C/C(C)=C/C(=O)O)ccc21 (centres unmarked) [Compound 28]	96	0.14	111	0.46	103	0.05	0.21	3.1	–
CCCC1(c2ccc3c(c2)C(C(C)(C)C)=CCC3(C)C)CC1/C=C/C(C)=C/C(=O)O (single isomer, unassigned; (+)) [Compound 22]	110	0.8	88	1.8	94	0.3	0.027	0.58	–
CCCC1(c2cc(C(C)(C)C)cc(C(C)(C)C)c2)CC1/C=C/C(C)=C/C(=O)O (single isomer, unassigned; (+)) [Compound 14]	86	1.3	80	4.3	93	9	0.03	3.7	–
CC(/C=C/[C@@H]1C[C@]1(C)c1ccc2c(c1)C(C(C)C)=CCC2(C)C)=C\C(=O)O [Compound 64, 7(1-Isoproply-4,4-dimethyl-3,4-dihydronaphthalen-7-yl](6S,7S)-6,7-methano-3,7-dimethyl-hepta-2E,4E-dienoic acid]	108	0.1	109	0.3	109	0.1	0.7	3	6

— patent US6403638B1, “2,4-pentadienoic acid derivatives having selective activity for retinoid X (RXR) receptors” (Allergan Sales, Inc., priority 1998, dated 2002)
